Source: patent US9062041B2 (Bayer Intellectual Property GmbH, priority 2011, dated 2015)

Tests used:
Format in all cases: cell-based
[1] = biological target: EP4 subtype of the human PGE2 receptor (Homo sapiens, UniProt P35408); assay: cAMP antagonism test on the human EP4 receptor (HTRF cAMP detection); conditions: selectivity towards hEP4, IC50 measured by cAMP antagonism test
Outline: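 Cells expressing human EP4 preincubated 20 min at RT with compound (0.8 nM–16.5 μM), then stimulated with PGE2 (0.3 nM in 3× solution, with IBMX) 60 min at RT. After lysis, cAMP measured by HTRF competition (665/620 nm ratio); antagonism seen as rise in FRET signal.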

[2] = biological target: EP2 subtype of the human PGE2 receptor (Homo sapiens, UniProt P43116); assay: cAMP antagonism test on the human EP2 receptor (HTRF cAMP detection); conditions: hEP2 receptor, read-out: Antagonism hEP2 IC50
Outline: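 Cells expressing human EP2 preincubated 20 min at RT with compound (0.8 nM–16.5 μM), then stimulated 60 min with PGE2 (3× solution 1.5 nM) in PBS-IBMX. After 20 min lysis, cAMP measured by competitive HTRF with cAMP-d2 and Eu cryptate anti-cAMP antibody (665/620 nm ratio).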

human PGD receptor = biological target: T1, human PGD receptor (Homo sapiens, UniProt Q13258); assay: cAMP antagonism test on the human prostaglandin D receptor (HTRF cAMP detection); conditions: selectivity towards hDP, IC50 measured by cAMP antagonism test
T1 sequence (Q13258 1-359): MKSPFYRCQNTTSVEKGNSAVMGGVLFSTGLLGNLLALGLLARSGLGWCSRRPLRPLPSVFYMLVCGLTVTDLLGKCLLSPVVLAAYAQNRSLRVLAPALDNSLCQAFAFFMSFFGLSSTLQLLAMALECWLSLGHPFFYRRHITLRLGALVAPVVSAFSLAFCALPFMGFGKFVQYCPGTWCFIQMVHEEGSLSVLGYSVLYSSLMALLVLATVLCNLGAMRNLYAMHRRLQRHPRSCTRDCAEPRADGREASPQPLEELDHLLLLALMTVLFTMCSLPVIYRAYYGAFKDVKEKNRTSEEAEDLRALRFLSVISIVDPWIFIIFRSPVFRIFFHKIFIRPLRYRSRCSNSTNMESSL
Outline: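 Cells pre-mixed with cAMP-d2 were preincubated with compound (0.8 nM–16.5 μM) for 20 min at RT, then stimulated with 3× PGD2 solution (6 nM, in PBS-IBMX) for 30 min at RT. After lysis (20 min), HTRF read at 665/620 nm; antagonism seen as rise in FRET ratio.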

EP2 subtype of the human PGE2 receptor, sequence (P43116 whole entry): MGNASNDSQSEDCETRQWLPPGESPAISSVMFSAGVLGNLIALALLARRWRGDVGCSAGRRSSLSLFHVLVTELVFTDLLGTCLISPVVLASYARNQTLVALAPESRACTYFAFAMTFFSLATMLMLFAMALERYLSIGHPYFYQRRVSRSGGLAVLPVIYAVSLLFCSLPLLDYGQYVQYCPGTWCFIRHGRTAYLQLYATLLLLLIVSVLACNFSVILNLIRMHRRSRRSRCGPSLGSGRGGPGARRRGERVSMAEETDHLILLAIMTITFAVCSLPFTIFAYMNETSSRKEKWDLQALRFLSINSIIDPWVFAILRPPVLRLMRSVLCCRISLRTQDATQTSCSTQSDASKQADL
EP4 subtype of the human PGE2 receptor, sequence (P35408 whole entry): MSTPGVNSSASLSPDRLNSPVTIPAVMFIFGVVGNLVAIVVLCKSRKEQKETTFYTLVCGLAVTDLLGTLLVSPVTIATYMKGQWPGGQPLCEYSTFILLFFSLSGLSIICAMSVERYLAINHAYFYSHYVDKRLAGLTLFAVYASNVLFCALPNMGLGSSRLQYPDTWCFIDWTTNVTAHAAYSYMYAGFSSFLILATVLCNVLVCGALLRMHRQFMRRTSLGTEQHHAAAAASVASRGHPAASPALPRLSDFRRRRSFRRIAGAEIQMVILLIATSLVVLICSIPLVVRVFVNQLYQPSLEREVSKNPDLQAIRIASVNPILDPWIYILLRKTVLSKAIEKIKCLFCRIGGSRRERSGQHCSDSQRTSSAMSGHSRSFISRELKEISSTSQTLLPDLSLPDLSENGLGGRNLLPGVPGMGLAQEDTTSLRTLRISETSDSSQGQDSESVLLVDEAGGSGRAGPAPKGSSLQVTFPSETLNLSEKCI

Row | Structure (SMILES) | Selectivity hEP2/hEP4 [1] | IC50 [2] [nM] | Selectivity hEP2/hDP (human PGD receptor)
1 | COCCNC(=O)c1cc2cn(CC3CN(C(=O)c4ccc(C(F)(F)F)cc4F)C3)nc2cc1C [Example 182, 2-({1-[2-fluoro-4-(trifluoromethyl)benzoyl]azetidin-3-yl}methyl)-N-(2-methoxy-ethyl)-6-methyl-2H-indazol-5-carboxamide] | xxx (xxx > 100) | 64.2 | xxx (xxx > 100)
2 | COc1ccc(-c2ccc(C(=O)N3CCC(Cn4cc5c(C)c(C(=O)NCC(F)(F)F)ccc5n4)CC3)cc2)cn1 [Example 322, 2-({1-[4-(6-methoxypyridin-3-yl)benzoyl]piperidin-4-yl}methyl)-4-methyl-N-(2,2,2-trifluoroethyl)-2H-indazol-5-carboxamide] | xxx (xxx > 100) | 76.2 | xxx (xxx > 100)
3 | Cc1c(C(=O)NCC(F)(F)F)ccc2nn(CC3CCN(C(=O)c4ccc(Oc5ccc(C(F)(F)F)cn5)cc4)CC3)cc12 [Example 301, 4-methyl-N-(2,2,2-trifluoroethyl)-2-{[1-(4-{[5-(trifluoromethyl)pyridin-2-yl]-oxy}benzoyl)piperidin-4-yl]methyl}-2H-indazol-5-carboxamide] | xxx (xxx > 100) | 24.5 | xxx (xxx > 100)
4 | COCCNC(=O)c1ccc2nn(CC3CCN(C(=O)c4nc5ccccc5o4)CC3)cc2c1C [Example 340, 2-{[1-(benzoxazol-2-ylcarbonyl)piperidin-4-yl]methyl}-N-(2-methoxyethyl)-4-methyl-2H-indazol-5-carboxamide] | xxx (xxx > 100) | 19.9 | xxx (xxx > 100)
5 | COCCNC(=O)c1ccc2nn(CC3CCN(C(=O)c4ccc(-c5ccncc5)c(C)c4)CC3)cc2c1C [Example 393, N-(2-methoxyethyl)-4-methyl-2-({1-[3-methyl-4-(4-pyridyl)benzoyl]piperidin-4-yl}methyl)-2H-indazol-5-carboxamide] | xxx (xxx > 100) | 50 | xxx (xxx > 100)
6 | Cc1c(C(=O)NCC(F)(F)F)ccc2nn(CC3CCN(C(=O)c4cc5ccccc5[nH]4)CC3)cc12 [Example 296, 2-{[1-(1H-Indol-2-ylcarbonyl)piperidin-4-yl]methyl}-4-methyl-N-(2,2,2-trifluoroethyl)-2H-indazol-5-carboxamide] | xxx (xxx > 100) | 29.7 | xxx (xxx > 100)
7 | COCCNC(=O)c1ccc2nn(CC3CCN(C(=O)c4ccc(-c5cccc(C(F)(F)F)n5)cc4)CC3)cc2c1C [Example 369, N-(2-methoxyethyl)-4-methyl-2-[(1-{4-[6-(trifluoromethyl)pyridin-2-yl]-benzoyl}piperidin-4-yl)methyl]-2H-indazol-5-carboxamide] | xxx (xxx > 100) | 5.66 | xxx (xxx > 100)
8 | COCCNC(=O)c1ccc2nn(CC3CCN(C(=O)c4cc(-c5ccccc5)no4)CC3)cc2c1C [Example 13, N-(2-methoxyethyl)-4-methyl-2-({1-[(3-phenylisoxazol-5-yl)carbonyl]piperidin-4-yl}methyl)-2H-indazol-5-carboxamide] | xxx (xxx > 100) | 35.9 | xxx (xxx > 100)
9 | COCCNC(=O)c1ccc2nn(CC3CCN(C(=O)c4ccc(-c5ccc(OC)cn5)cc4)CC3)cc2c1C [Example 373, N-(2-methoxyethyl)-2-({1-[4-(5-methoxypyridin-2-yl)benzoyl]piperidin-4-yl}-methyl)-4-methyl-2H-indazol-5-carboxamide] | xxx (xxx > 100) | 40.7 | xxx (xxx > 100)
10 | Cc1c(C(=O)NCCOCC(F)(F)F)ccc2nn(CC3CN(C(=O)c4ccc(Oc5ccc(C(F)(F)F)cc5)cc4)C3)cc12 [Example 163, 4-methyl-N-[2-(2,2,2-trifluoroethoxy)ethyl]-2-[(1-{4-[4-(trifluoromethyl)phenoxy]benzoyl}azetidin-3-yl)methyl]-2H-indazol-5-carboxamide] | xxx (xxx > 100) | 6.8 | xxx (xxx > 100)
11 | Cc1c(C(=O)NCC(F)(F)F)ccc2nn(CC3CN(C(=O)c4ccc(-c5ccc(F)cc5)cc4)C3)cc12 [Example 161, 2-({1-[(4′-fluorobiphenyl-4-yl)carbonyl]azetidin-3-yl}methyl)-4-methyl-N-(2,2,2-trifluoroethyl)-2H-indazol-5-carboxamide] | xxx (xxx > 100) | 98.2 | xxx (xxx > 100)

Results, then the molecule that gave them:

Row | Selectivity hEP2/hEP4 [1] | IC50 [2] [nM] | Selectivity hEP2/hDP (human PGD receptor) | Structure (SMILES)
12 | xxx (xxx > 100) | 10.4 | xxx (xxx > 100) | COCCNC(=O)c1ccc2nn(CC3CCN(C(=O)c4ccc(C(F)F)cc4)CC3)cc2c1C [Example 32, 2-({1-[4-(difluoro-methyl)benzoyl]-piperidin-4-yl}-methyl)-N-(2-methoxyethyl)-4-methyl-2H-indazol-5-carboxamide]
13 | xx (xx: 10-100) | 593 | xx (xx: 10-100) | Cc1c(C(=O)NCCC(C)(C)O)ccc2nn(CC3CCN(C(=O)c4ccc(Cl)cc4)CC3)cc12 [Example 399, 2-{[1-(4-chlorobenzoyl)piperidin-4-yl]methyl}-N-(3-hydroxy-3-methylbutyl)-4-methyl-2H-indazol-5-carboxamide]
14 | xxx (xxx > 100) | 27.3 | xxx (xxx > 100) | COCCNC(=O)c1ccc2nn(CC3CCN(C(=O)c4ccc(-c5ccc(C)nc5)cc4)CC3)cc2c1C [Example 377, N-(2-methoxyethyl)-4-methyl-2-({1-[4-(6-methylpyridin-3-yl)benzoyl]piperidin-4-yl}methyl)-2H-indazol-5-carboxamide]
15 | xxx (xxx > 100) | 7.36 | xxx (xxx > 100) | COCCNC(=O)c1ccc2nn(CC3CCN(C(=O)c4ccc(Oc5ccc(Cl)cn5)cc4)CC3)cc2c1C [Example 357, 2-[(1-{4-[(5-chloropyridin-2-yl)oxy]benzoyl}piperidin-4-yl)methyl]-N-(2-methoxyethyl)-4-methyl-2H-indazol-5-carboxamide]
16 | xxx (xxx > 100) | 15.4 | xxx (xxx > 100) | Cc1c(C(=O)NCCOCC2CC2)ccc2nn(CC3CCN(C(=O)c4ccc(Oc5ccc(F)cc5)cc4)CC3)cc12 [Example 86, N-[2-(cyclopropyl-methoxy)ethyl]-2-({1-[4-(4-fluorophenoxy)-benzoyl]piperidin-4-yl}methyl)-4-methyl-2H-indazol-5-carboxamide]
17 | xxx (xxx > 100) | 30.6 | xxx (xxx > 100) | Cc1c(C(=O)NCC(F)(F)F)ccc2nn(CC3CCN(C(=O)c4ccc(Oc5cccc(F)c5)cc4)CC3)cc12 [Example 307, 2-({1-[4-(3-fluorophenoxy)benzoyl]piperidin-4-yl}methyl)-4-methyl-N-(2,2,2-trifluoroethyl)-2H-indazol-5-carboxamide]
18 | xxx (xxx > 100) | 9.75 | xxx (xxx > 100) | Cc1c(C(=O)NCC2CCCCO2)ccc2nn(CC3CCN(C(=O)c4ccc(Oc5ccc(C(F)(F)F)cc5)cc4)CC3)cc12 (single isomer, unassigned) [Example 417, (S or R)-4-methyl-N-(3,4,5,6-tetrahydro-2H-pyran-2-ylmethyl)-2-[(1-{4-[4-(trifluoromethyl)phenoxy]benzoyl}piperidin-4-yl)methyl]-2H-indazol-5-carboxamide]
19 | xxx (xxx > 100) | 35.8 | xxx (xxx > 100) | COCCNC(=O)c1ccc2nn(CC3CCN(C(=O)c4ccc(OC)cc4)CC3)cc2c1C [Example 21, 2-{[1-(4-methoxy-benzoyl)piperidin-4-yl]methyl}-N-(2-methoxyethyl)-4-methyl-2H-indazol-5-carboxamide]
20 | xxx (xxx > 100) | 63.5 | xxx (xxx > 100) | Cc1c(C(=O)NCC2CCO2)ccc2nn(CC3CCN(C(=O)c4ccc(Cl)cc4)CC3)cc12 (racemic) [Example 412, (+/−)-2-{[1-(4-chlorobenzoyl)piperidin-4-yl]methyl}-4-methyl-N-(oxetan-2-ylmethyl)-2H-indazol-5-carboxamide]
